# From ChEMBL document CHEMBL1201862, “PubChem BioAssay data set” (2004)
#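 Method: 48-hour compound exposure of cells in 96-well plates, five concentrations, linear interpolation of endpoints. Here, GI50 denotes the concentration required for 50% inhibition of growth.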 Activity calls are given as the source filed them. No stated cut-off is given here; in the data, active = GI50 up to about 1.1 µM and inactive = higher.
# How the values were obtained:
# Test in all cases: NCI tumour cell line growth inhibition, 48 h
# A549 = system: A549
# NCI-H226 = system: NCI-H226
# HOP-62 = system: HOP-62
# LOX IMVI = system: LOX IMVI
# MDA-N = system: MDA-N
# UACC-62 = system: UACC-62
# ACHN = system: ACHN
# Malme-3M = system: Malme-3M
# SR = system: SR
# SF-268 = system: SF-268
# SNB-19 = system: SNB-19
# Hs-578T = system: Hs-578T
# U-251 = system: U-251
# RXF 393 = system: RXF 393
# HL-60 = system: HL-60
# 786-0 = system: 786-0
# CCRF-CEM = system: CCRF-CEM
# CAKI-1 = system: CAKI-1
# OVCAR-4 = system: OVCAR-4
# HCC 2998 = system: HCC 2998
# MOLT-4 = system: MOLT-4
# OVCAR-8 = system: OVCAR-8
# SK-MEL-2 = system: SK-MEL-2
# SF-295 = system: SF-295
# MDA-MB-435 = system: MDA-MB-435
# SK-OV-3 = system: SK-OV-3
# K562 = system: K562
# SK-MEL-28 = system: SK-MEL-28
# NCI/ADR-RES = system: NCI/ADR-RES
# NCI-H460 = system: NCI-H460
# PC-3 = system: PC-3
# EKVX = system: EKVX
# OVCAR-5 = system: OVCAR-5
# MCF7 = system: MCF7
# M14 = system: M14
# HOP-92 = system: HOP-92
# MDA-MB-231 = system: MDA-MB-231
# HCT-15 = system: HCT-15
# DU-145 = system: DU-145
# NCI-H522 = system: NCI-H522
# KM12 = system: KM12
# SF-539 = system: SF-539
# T47D = system: T47D
# HCT-116 = system: HCT-116
# NCI-H23 = system: NCI-H23
# SNB-75 = system: SNB-75
# UACC-257 = system: UACC-257
# A498 = system: A498
# BT-549 = system: BT-549
# COLO 205 = system: COLO 205
# SW-620 = system: SW-620
# SK-MEL-5 = system: SK-MEL-5
# IGROV-1 = system: IGROV-1
# TK-10 = system: TK-10
# HT-29 = system: HT-29
# RPMI-8226 = system: RPMI-8226
# UO-31 = system: UO-31
# SN12C = system: SN12C
# OVCAR-3 = system: OVCAR-3
smiles,measurement,setting,value
C=C1C(=O)OC2C1C(OC(=O)/C(C)=C/C)CC(O)(CCl)C1C(OC(C)=O)C=C(C)C21O (configuration not stated),GI50,A549,28.2 µM (inactive)
same,GI50,NCI-H226,30.3 µM (inactive)
same,GI50,HOP-62,34.8 µM (inactive)
same,GI50,LOX IMVI,6.49 µM (inactive)
same,GI50,MDA-N,16.8 µM (inactive)
same,GI50,UACC-62,14.3 µM (inactive)
same,GI50,ACHN,8.97 µM (inactive)
same,GI50,Malme-3M,3.34 µM (inactive)
same,GI50,SR,3.8 µM (inactive)
same,GI50,SF-268,16 µM (inactive)
same,GI50,SNB-19,> 42.9 µM (inactive)
same,GI50,Hs-578T,61.9 µM (inactive)
same,GI50,U-251,20.2 µM (inactive)
same,GI50,RXF 393,11.2 µM (inactive)
same,GI50,HL-60,1.89 µM (inactive)
same,GI50,786-0,11.6 µM (inactive)
same,GI50,CCRF-CEM,2.79 µM (inactive)
same,GI50,CAKI-1,7.11 µM (inactive)
same,GI50,OVCAR-4,17.2 µM (inactive)
same,GI50,HCC 2998,16.3 µM (inactive)
same,GI50,MOLT-4,3.69 µM (inactive)
same,GI50,OVCAR-8,8.45 µM (inactive)
same,GI50,SK-MEL-2,15.9 µM (inactive)
same,GI50,SF-295,58.5 µM (inactive)
same,GI50,MDA-MB-435,20.3 µM (inactive)
same,GI50,SK-OV-3,37 µM (inactive)
same,GI50,K562,7.8 µM (inactive)
same,GI50,SK-MEL-28,10.5 µM (inactive)
same,GI50,NCI/ADR-RES,16.3 µM (inactive)
same,GI50,NCI-H460,20.8 µM (inactive)
same,GI50,PC-3,16.1 µM (inactive)
same,GI50,EKVX,9.75 µM (inactive)
same,GI50,OVCAR-5,17.3 µM (inactive)
same,GI50,MCF7,6.56 µM (inactive)
same,GI50,M14,12.6 µM (inactive)
same,GI50,HOP-92,13.1 µM (inactive)
same,GI50,MDA-MB-231,20.1 µM (inactive)
same,GI50,HCT-15,6.46 µM
same,GI50,DU-145,15.2 µM (inactive)
same,GI50,NCI-H522,1.99 µM (inactive)
same,GI50,KM12,19.2 µM (inactive)
same,GI50,SF-539,18.2 µM (inactive)
same,GI50,T47D,18 µM (inactive)
same,GI50,HCT-116,7.5 µM (inactive)
same,GI50,NCI-H23,16.6 µM (inactive)
same,GI50,SNB-75,21.8 µM (inactive)
same,GI50,UACC-257,16.5 µM (inactive)
same,GI50,A498,21.8 µM (inactive)
same,GI50,BT-549,8.85 µM (inactive)
same,GI50,COLO 205,8.3 µM (inactive)
same,GI50,SW-620,3.98 µM (inactive)
same,GI50,SK-MEL-5,14.1 µM (inactive)
same,GI50,IGROV-1,14.4 µM (inactive)
same,GI50,TK-10,13.8 µM (inactive)
same,GI50,HT-29,16.3 µM (inactive)
same,GI50,RPMI-8226,7.01 µM (inactive)
same,GI50,UO-31,18.6 µM (inactive)
same,GI50,SN12C,16.2 µM (inactive)
same,GI50,OVCAR-3,8.93 µM (inactive)
COc1ccc(CCN2C(=O)C=CC2=O)cc1OC,GI50,A549,23 µM (inactive)
same,GI50,NCI-H226,5.62 µM (inactive)
same,GI50,HOP-62,22.5 µM (inactive)
same,GI50,LOX IMVI,18.5 µM (inactive)
same,GI50,MDA-N,17.8 µM (inactive)
same,GI50,UACC-62,17.3 µM (inactive)
same,GI50,ACHN,1.77 µM (inactive)
same,GI50,Malme-3M,13.8 µM (inactive)
same,GI50,SR,2.25 µM (inactive)
same,GI50,SF-268,22.1 µM (inactive)
same,GI50,SNB-19,19.5 µM (inactive)
same,GI50,Hs-578T,32.4 µM (inactive)
same,GI50,U-251,19.5 µM (inactive)
same,GI50,RXF 393,4.9 µM (inactive)
same,GI50,HL-60,8.39 µM (inactive)
same,GI50,786-0,3.07 µM (inactive)
same,GI50,CCRF-CEM,1.85 µM (inactive)
same,GI50,CAKI-1,13.3 µM (inactive)
same,GI50,OVCAR-4,1.88 µM (inactive)
same,GI50,HCC 2998,17.4 µM (inactive)
same,GI50,MOLT-4,2.43 µM (inactive)
same,GI50,OVCAR-8,19.8 µM (inactive)
same,GI50,SK-MEL-2,5.2 µM (inactive)
same,GI50,SF-295,17.7 µM (inactive)
same,GI50,MDA-MB-435,17.5 µM (inactive)
same,GI50,SK-OV-3,18.8 µM (inactive)
same,GI50,K562,2.59 µM (inactive)
same,GI50,SK-MEL-28,16.4 µM (inactive)
same,GI50,NCI/ADR-RES,25.4 µM (inactive)
same,GI50,NCI-H460,21.5 µM (inactive)
same,GI50,PC-3,18.7 µM (inactive)
same,GI50,EKVX,19.2 µM (inactive)
same,GI50,OVCAR-5,18.4 µM (inactive)
same,GI50,MCF7,17.3 µM (inactive)
same,GI50,M14,9.84 µM (inactive)
same,GI50,HOP-92,15.4 µM (inactive)
same,GI50,MDA-MB-231,14.1 µM (inactive)
same,GI50,HCT-15,1.87 µM
same,GI50,DU-145,16.5 µM (inactive)
same,GI50,NCI-H522,1.52 µM (inactive)
same,GI50,KM12,19.6 µM (inactive)
same,GI50,SF-539,17.3 µM (inactive)
same,GI50,T47D,7.16 µM (inactive)
same,GI50,HCT-116,3.53 µM (inactive)
same,GI50,NCI-H23,22 µM (inactive)
same,GI50,SNB-75,20.5 µM (inactive)
same,GI50,UACC-257,16.8 µM (inactive)
same,GI50,A498,16.7 µM (inactive)
same,GI50,BT-549,17.5 µM (inactive)
same,GI50,COLO 205,1.83 µM (inactive)
same,GI50,SW-620,2.28 µM (inactive)
same,GI50,SK-MEL-5,17.3 µM (inactive)
same,GI50,IGROV-1,18 µM (inactive)
same,GI50,TK-10,15.2 µM (inactive)
same,GI50,HT-29,6.31 µM (inactive)
same,GI50,RPMI-8226,1.77 µM (inactive)
same,GI50,UO-31,1.63 µM (inactive)
same,GI50,SN12C,17.5 µM (inactive)
same,GI50,OVCAR-3,18 µM (inactive)
C/C1=C\C=C(\C(C)C)CC/C(C(=O)O)=C\CC/C(C)=C/CC1 [NEOCROTOCEMBRANEIC ACID],GI50,A549,30.2 µM (inactive)
same,GI50,NCI-H226,20.9 µM (inactive)
same,GI50,HOP-62,22.8 µM (inactive)
same,GI50,LOX IMVI,20.5 µM (inactive)
same,GI50,MDA-N,28.8 µM (inactive)
same,GI50,UACC-62,13.1 µM (inactive)
same,GI50,ACHN,34.3 µM (inactive)
same,GI50,Malme-3M,23.2 µM (inactive)
same,GI50,SR,19.5 µM (inactive)
same,GI50,SF-268,32.9 µM (inactive)
same,GI50,SNB-19,24.9 µM (inactive)
same,GI50,Hs-578T,43.6 µM (inactive)
same,GI50,U-251,16.9 µM (inactive)
same,GI50,RXF 393,20.7 µM (inactive)
same,GI50,HL-60,24.8 µM (inactive)
same,GI50,786-0,24.6 µM (inactive)
same,GI50,CCRF-CEM,19.5 µM (inactive)
same,GI50,CAKI-1,31.7 µM (inactive)
same,GI50,OVCAR-4,33.4 µM (inactive)
same,GI50,HCC 2998,18.7 µM (inactive)
same,GI50,MOLT-4,19.1 µM (inactive)
same,GI50,OVCAR-8,31.2 µM (inactive)
same,GI50,SK-MEL-2,18.1 µM (inactive)
same,GI50,SF-295,20 µM (inactive)
same,GI50,MDA-MB-435,23.6 µM (inactive)
same,GI50,SK-OV-3,27.6 µM (inactive)
same,GI50,K562,26.1 µM (inactive)
same,GI50,SK-MEL-28,24.6 µM (inactive)
same,GI50,NCI/ADR-RES,30.5 µM (inactive)
same,GI50,NCI-H460,17.7 µM (inactive)
same,GI50,PC-3,18 µM (inactive)
same,GI50,EKVX,27.1 µM (inactive)
same,GI50,OVCAR-5,29.3 µM (inactive)
same,GI50,MCF7,16.9 µM (inactive)
same,GI50,M14,29 µM (inactive)
same,GI50,HOP-92,19.4 µM (inactive)
same,GI50,MDA-MB-231,20.7 µM (inactive)
same,GI50,HCT-15,21.4 µM
same,GI50,DU-145,33.1 µM (inactive)
same,GI50,NCI-H522,19.3 µM (inactive)
same,GI50,KM12,20.6 µM (inactive)
same,GI50,SF-539,18.5 µM (inactive)
same,GI50,T47D,34.4 µM (inactive)
same,GI50,HCT-116,15.9 µM (inactive)
same,GI50,NCI-H23,20.7 µM (inactive)
same,GI50,SNB-75,33.7 µM (inactive)
same,GI50,UACC-257,22.5 µM (inactive)
same,GI50,A498,17.6 µM (inactive)
same,GI50,BT-549,27.5 µM (inactive)
same,GI50,COLO 205,23.4 µM (inactive)
same,GI50,SW-620,35.8 µM (inactive)
same,GI50,SK-MEL-5,19.3 µM (inactive)
same,GI50,IGROV-1,42 µM (inactive)
same,GI50,TK-10,31.8 µM (inactive)
same,GI50,HT-29,32 µM (inactive)
same,GI50,RPMI-8226,19.3 µM (inactive)
same,GI50,UO-31,30.3 µM (inactive)
same,GI50,SN12C,21.2 µM (inactive)
same,GI50,OVCAR-3,16.6 µM (inactive)
